Data taken from patent US8637510B2, “Morpholinothiazoles as alpha 7 positive allosteric modulators” (Janssen Pharmaceutica NV, priority 2009, dated 2014).

Target: T1, human alpha 7-wt nAChR (Homo sapiens, UniProt P36544)
T1 construct: expressed in transfected cells
Test: Ca2+ flux imaging (FDSS) (Protocol B)
Type: cell-based
Conditions: for EC50: potentiation of 100 μM choline, compounds 0.01 μM to 30 μM, read-out: a7-PAM-G_[33]_pEC50 pEC50 (converted); for Emax: efficacy of 100 μM choline defined as 100% in the absence of a PAM, read-out: a7-PAM-G_[33]_Eff_Curve_FI % Efficacy
Procedure: Ca^2+ Flux Imaging (FDSS) (Protocol B)
• Hanks buffered saline solution (HBSS, Invitrogen, Belgium), supplemented with 10 mM HEPES (Invitrogen, Belgium), CaCl2 to a final concentration of 5 mM, 0.1% Bovine serum albumin (Sigma-Aldrich NV, Belgium). b) Calcium-Sensitive Dye—Fluo-4AM • Fluo-4AM (Molecular Probes, USA) was dissolved in DMSO containing 10% Pluronic acid (Molecular Probes, USA) to give a stock solution which was diluted in assay buffer supplemented with 5 mM probenicid (Sigma, Aldrich NV, Belgium) to give a final concentration of 2 μM. c) 384-Well Plates • Black-sided, transparent bottomed 384 well plates coated with poly-D-lysine, PDL pre-coated (Corning, Incorporated, USA) d) Calcium Flux Measurement • A Functional drug screening system (FDSS, Hamamatsu) was used to measure intracellular free-calcium flux signals. Method
Monolayers of human alpha 7-wt nAChR-expressing cells were grown in black-sided, transparent bottomed 384 well plates coated with PDL for 24 hours prior to loading with a fluorescent calcium indicator, fluo-4AM for up to 120 minutes.
PAM activity was detected in real time by applying the compounds to be tested to the loaded cells along with an alpha 7 nicotinic receptor agonist during constant monitoring of cellular fluorescence in a FDSS. Compounds giving peak fluorescent responses greater than the response due to agonist alone, were considered to be alpha 7 nAChR PAMs. The alpha 7 nicotinic receptor agonist was choline, applied at a sub-maximal concentration of 100 μM. In a further setting of the present invention the compounds were applied prior to the alpha 7 nicotinic receptor agonist, in a particular 10 minutes prior to the agonist.
A control response to choline was calculated on each plate from the difference in peak in fluorescence in wells receiving either choline or assay buffer alone. Compounds of the present invention were tested at a concentration range from 0.01 μM to 30 μM. Compounds were considered to have an interesting activity when they potentiated the choline signal at least with 200% when tested at a concentration of 30 μM (the efficacy of 100 μM choline was defined as 100% in the absence of a PAM). An EC50 (or pEC50) was determined as a concentration relating to half the maximal effect, when a clear sigmoidal curve with top plateau was obtained.

T1 sequence (P36544 23-502): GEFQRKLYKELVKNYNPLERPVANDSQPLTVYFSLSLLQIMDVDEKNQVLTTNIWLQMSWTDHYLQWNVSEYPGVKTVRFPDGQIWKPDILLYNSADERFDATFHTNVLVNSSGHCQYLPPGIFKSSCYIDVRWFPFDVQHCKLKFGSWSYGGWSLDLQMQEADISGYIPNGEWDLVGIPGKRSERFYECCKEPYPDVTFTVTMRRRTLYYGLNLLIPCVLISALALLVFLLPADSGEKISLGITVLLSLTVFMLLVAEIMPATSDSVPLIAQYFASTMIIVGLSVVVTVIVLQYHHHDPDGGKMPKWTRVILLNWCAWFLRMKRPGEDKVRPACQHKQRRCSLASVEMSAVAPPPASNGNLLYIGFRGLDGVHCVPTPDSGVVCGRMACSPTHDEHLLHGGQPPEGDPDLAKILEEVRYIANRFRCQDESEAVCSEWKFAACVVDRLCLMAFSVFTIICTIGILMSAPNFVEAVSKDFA

| Structure (SMILES) | EC50 | Emax |
| --- | --- | --- |
| CC(=O)NCc1nc(N2C[C@@H](C)O[C@@H](C)C2)sc1-c1cc(C)nc(C)c1 [Compound 60, N-[[2-[(2R,6S)-2,6-dimethyl-4-morpholinyl]-5-(2,6-dimethyl-4-pyridinyl)-4-thiazolyl]methyl]-acetamide] |  | 495% |
| Cc1cc(-c2sc(N3CCOCC3)nc2CNC(=O)c2conc2C)cc(C)n1 [Compound 62, N-[[5-(2,6-dimethyl-4-pyridinyl)-2-(4-morpholinyl)-4-thiazolyl]methyl]-3-methyl-4-isoxazolecarboxamide] | 4270 nM | 633% |
| Cc1cc(-c2sc(N3C[C@@H](C)O[C@@H](C)C3)nc2CNC(=O)c2conc2C)ccn1 [Compound 86, N-[[2-[(2R,6S)-2,6-dimethyl-4-morpholinyl]-5-(2-methyl-4-pyridinyl)-4-thiazolyl]methyl]-3-methyl-4-isoxazolecarboxamide] | 759 nM | 479% |
| Cc1cc(-c2sc(N3C[C@@H](C)O[C@@H](C)C3)nc2CNC(=O)c2cccc(Cl)c2)ccn1 [Compound 91, 3-chloro-N-[[2-[(2R,6S)-2,6-dimethyl-4-morpholinyl]-5-(2-methyl-4-pyridinyl)-4-thiazolyl]methyl]-benzamide] | 407 nM | 445% |
| Cc1cc(-c2sc(N3C[C@@H](C)O[C@@H](C)C3)nc2CNC(=O)C2CCC2)c(C)cn1 [Compound 95, N-[[2-[(2R,6S)-2,6-dimethyl-4-morpholinyl]-5-(2,5-dimethyl-4-pyridinyl)-4-thiazolyl]methyl]-cyclobutanecarboxamide] | 2090 nM | 299% |
| Cc1nocc1C(=O)NCc1nc(N2C[C@@H](C)O[C@@H](C)C2)sc1-c1ccncc1 [Compound 101, N-[[2-[(2R,6S)-2,6-dimethyl-4-morpholinyl]-5-(4-pyridinyl)-4-thiazolyl]methyl]-3-methyl-4-isoxazolecarboxamide] | 6610 nM |  |
| Cc1cc(-c2sc(N3C[C@@H](C)O[C@@H](C)C3)nc2CNC(=O)CC2CC2)cc(C2CC2)n1 [Compound 104, N-[[5-(2-cyclopropy1-6-methyl-4-pyridinyl)-2-[(2R,6S)-2,6-dimethyl-4-morpholinyl]-4-thiazolyl]methyl]-cyclopropaneacetamide] | 61.7 nM | 923% |
| Cc1cc(-c2sc(N3C[C@@H](C)O[C@@H](C)C3)nc2CNC(=O)c2cc(C)on2)cc(C2CC2)n1 [Compound 105, N-[[5-(2-cyclopropy1-6-methyl-4-pyridinyl)-2-[(2R,6S)-2,6-dimethyl-4-morpholinyl]-4-thiazolyl]methyl]-5-methyl-3-isoxazolecarboxamide] | 288 nM | 895% |
| Cc1cc(-c2sc(N3C[C@@H](C)O[C@@H](C)C3)nc2CNC(=O)c2conc2C)cc(C2CC2)n1 [Compound 106, N-[[5-(2-cyclopropy1-6-methyl-4-pyridinyl)-2-[(2R,6S)-2,6-dimethyl-4-morpholinyl]-4-thiazolyl]methyl]-3-methyl-4-isoxazolecarboxamide] | 81.3 nM | 650% |
| Cc1cc(-c2sc(N3C[C@@H](C)O[C@@H](C)C3)nc2CNC(=O)C(C)C)cc(C2CC2)n1 [Compound 108, N-[[5-(2-cyclopropy1-6-methyl-4-pyridinyl)-2-[(2R,6S)-2,6-dimethyl-4-morpholinyl]-4-thiazolyl]methyl]-2-methyl-propanamide] | 72.4 nM | 764% |
| CC(C)C(=O)NCc1nc(N2CCOCC2)sc1-c1ccncc1 [Compound 115, 2-methyl-N-[[2-(4-morpholinyl)-5-(4-pyridinyl)-4-thiazolyl]methyl]-propanamide] | 9330 nM | 230% |
| Cc1ccc(-c2sc(N3C[C@@H](C)O[C@@H](C)C3)nc2CNC(=O)c2ccccc2F)cn1 [Compound 124, N-[[2-[(2R,6S)-2,6-dimethyl-4-morpholinyl]-5-(6-methyl-3-pyridinyl)-4-thiazolyl]methyl]-2-fluoro-benzamide] |  | 356% |
| Cc1cc(-c2sc(N3C[C@@H](C)O[C@@H](C)C3)nc2CNC(=O)c2cc(C3CC3)on2)cc(C)n1 [Compound 127, 5-cyclopropyl-N-[[2-[(2R,6S)-2,6-dimethyl-4-morpholinyl]-5-(2,6-dimethyl-4-pyridinyl)-4-thiazolyl]methyl]-3-isoxazolecarboxamide] | 692 nM |  |
| Cc1cc(-c2sc(N3C[C@@H](C)O[C@@H](C)C3)nc2CNC(=O)c2cc(C)nn2C(C)(C)C)cc(C)n1 [Compound 129, 1-(1,1-dimethylethyl)-N-[[2-[(2R,6S)-2,6-dimethyl-4-morpholinyl]-5-(2,6-dimethyl-4-pyridinyl)-4-thiazolyl]methyl]-3-methyl-1H-pyrazole-5-carboxamide] | 912 nM |  |
| Cc1cc(-c2sc(N3C[C@@H](C)O[C@@H](C)C3)nc2CNC(=O)c2cc(C)n(C)n2)cc(C)n1 [Compound 131, N-[[2-[(2R,6S)-2,6-dimethyl-4-morpholinyl]-5-(2,6-dimethyl-4-pyridinyl)-4-thiazolyl]methyl]-1,5-dimethyl-1H-pyrazole-3-carboxamide] |  | 462% |
| Cc1cc(-c2sc(N3C[C@@H](C)O[C@@H](C)C3)nc2CNC(=O)c2cnccn2)cc(C)n1 [Compound 138, N-[[2-[(2R,6S)-2,6-dimethyl-4-morpholinyl]-5-(2,6-dimethyl-4-pyridinyl)-4-thiazolyl]methyl]-2-pyrazinecarboxamide] | 4680 nM | 837% |

Results, then the compound that gave them:

| EC50 | Emax | Structure (SMILES) |
| --- | --- | --- |
| 646 nM |  | Cc1cc(-c2sc(N3C[C@@H](C)O[C@@H](C)C3)nc2CNC(=O)c2cc(C(C)(C)C)nn2C)cc(C)n1 [Compound 54, 3-(1,1-dimethylethyl)-N-[[2-[(2R,6S)-2,6-dimethyl-4-morpholinyl]-5-(2,6-dimethyl-4-pyridinyl)-4-thiazolyl]methyl]-1-methyl-1H-pyrazole-5-carboxamide] |
| 661 nM | 523% | Cc1cc(-c2sc(N3C[C@@H](C)O[C@@H](C)C3)nc2CNC(=O)c2ccccc2F)ccn1 [Compound 92, N-[[2-[(2R,6S)-2,6-dimethyl-4-morpholinyl]-5-(2-methyl-4-pyridinyl)-4-thiazolyl]methyl]-2-fluoro-benzamide] |
| 26.9 nM | 780% | Cc1cc(-c2sc(N3C[C@@H](C)O[C@@H](C)C3)nc2CNC(=O)c2ccc(F)cc2C)cc(C2CC2)n1 [Compound 107, N-[[5-(2-cyclopropy1-6-methyl-4-pyridinyl)-2-[(2R,6S)-2,6-dimethyl-4-morpholinyl]-4-thiazolyl]methyl]-4-fluoro-2-methyl-benzamide] |
| 224 nM | 826% | Cc1cc(-c2sc(N3C[C@@H](C)O[C@@H](C)C3)nc2CNC(=O)C2CC2)cc(C2CC2)n1 [Compound 109, N-[[5-(2-cyclopropy1-6-methyl-4-pyridinyl)-2-[(2R,6S)-2,6-dimethyl-4-morpholinyl]-4-thiazolyl]methyl]-cyclopropanecarboxamide] |
| 12.3 nM | 957% | Cc1cc(-c2sc(N3C[C@@H](C)O[C@@H](C)C3)nc2CNC(=O)CC(C)C)cc(C2CC2)n1 [Compound 110, N-[[5-(2-cyclopropy1-6-methyl-4-pyridinyl)-2-[(2R,6S)-2,6-dimethyl-4-morpholinyl]-4-thiazolyl]methyl]-3-methyl-butanamide] |
| 51.3 nM |  | Cc1cc(-c2sc(N3C[C@@H](C)O[C@@H](C)C3)nc2CNC(=O)CCC(F)(F)F)cc(C)n1 [Compound 128, N-[[2-[(2R,6S)-2,6-dimethyl-4-morpholinyl]-5-(2,6-dimethyl-4-pyridinyl)-4-thiazolyl]methyl]-4,4,4-trifluoro-butanamide] |
| 309 nM |  | Cc1cc(-c2sc(N3C[C@@H](C)O[C@@H](C)C3)nc2CNC(=O)c2noc3ccccc23)cc(C)n1 [Compound 130, N-[[2-[(2R,6S)-2,6-dimethyl-4-morpholinyl]-5-(2,6-dimethyl-4-pyridinyl)-4-thiazolyl]methyl]-1,2-benzisoxazole-3-carboxamide] |
| 537 nM |  | Cc1cc(-c2sc(N3C[C@@H](C)O[C@@H](C)C3)nc2CNC(=O)c2cc(C(C)C)on2)cc(C)n1 [Compound 135, N-[[2-[(2R,6S)-2,6-dimethyl-4-morpholinyl]-5-(2,6-dimethyl-4-pyridinyl)-4-thiazolyl]methyl]-5-(1-methylethyl)-3-isoxazolecarboxamide] |
| 1950 nM |  | Cc1cc(-c2sc(N3C[C@@H](C)O[C@@H](C)C3)nc2CNC(=O)c2cc(C)nn2C)cc(C)n1 [Compound 136, N-[[2-[(2R,6S)-2,6-dimethyl-4-morpholinyl]-5-(2,6-dimethyl-4-pyridinyl)-4-thiazolyl]methyl]-1,3-dimethyl-1H-pyrazole-5-carboxamide] |
